Experimental data: patent publication US20260200919A1, “SUBSTITUTED AMINOPYRIDINE COMPOUNDS AND METHODS OF TREATING DISEASE USING SAME” (Atavistik Bio, Inc., priority 2023, published 2026)

Columns and labels:
[1] = biological target: T1, human recombinant kinase full-length wildtype AKT1 (Homo sapiens, UniProt P31749); assay: AKT1 kinase assay (wildtype, TR-FRET, Lance); type: biochemical; details: 0.6 nM wildtype AKT1, 50 nM Ulight-CREBtide, either 50 μM ATP or 2 mM ATP (not specified which), 60 min at RT
T1 construct: Purified human recombinant kinase full-length wildtype AKT1 was expressed in insect cells; made in house; host or cells: insect cells
Outline: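 Insect-cell-expressed AKT1, activated in vitro by PDPK1, was used at 0.6 nM with 50 nM Ulight-CREBtide and 50 μM or 2 mM ATP in 50 mM HEPES pH 7.5, 1% DMSO, over a 10-point dose response.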

[2] = biological target: T2, human recombinant kinase full-length AKT1 E17K (Homo sapiens, UniProt P31749, E17K); assay: AKT1 E17K kinase assay (TR-FRET, Lance); type: biochemical; details: 0.6 nM AKT1 E17K, 50 nM Ulight-CREBtide, either 50 μM ATP or 2 mM ATP (not specified which), 60 min at RT
T2 construct: Purified human recombinant kinase full-length AKT1 E17K was expressed in insect cells; made in house; host or cells: insect cells
Outline: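 Full-length human AKT1 E17K (insect cell-expressed, PDPK1-activated; 0.6 nM) with 50 nM ULight-CREBtide in HEPES pH 7.5 with MgCl2 and DTT. ATP at 50 μM or 2 mM, 1% DMSO, 10-point dose response, 60 min at RT.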

T2 sequence (P31749 whole entry E17K): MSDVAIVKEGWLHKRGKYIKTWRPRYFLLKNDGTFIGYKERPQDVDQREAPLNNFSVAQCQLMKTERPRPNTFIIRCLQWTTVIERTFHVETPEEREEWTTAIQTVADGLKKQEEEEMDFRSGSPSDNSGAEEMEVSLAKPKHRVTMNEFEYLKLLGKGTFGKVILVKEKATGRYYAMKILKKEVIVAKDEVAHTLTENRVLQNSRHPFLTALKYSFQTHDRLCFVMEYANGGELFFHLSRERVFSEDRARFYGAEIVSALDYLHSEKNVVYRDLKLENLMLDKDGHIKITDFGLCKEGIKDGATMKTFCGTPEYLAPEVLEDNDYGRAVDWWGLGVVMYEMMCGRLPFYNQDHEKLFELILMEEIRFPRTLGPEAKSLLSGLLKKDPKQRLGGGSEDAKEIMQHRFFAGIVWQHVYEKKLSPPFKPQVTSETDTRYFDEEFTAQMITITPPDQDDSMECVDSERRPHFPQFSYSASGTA
T1 sequence (P31749 whole entry): as the sequence (P31749 whole entry E17K) above, with K17E counted along it

| Compound | IC50 [1] [nM] | IC50 [2] [nM] |
| --- | --- | --- |
| Nc1ncccc1-c1nc2ccc(-c3ccccc3)nc2n1-c1ccc(NC(=O)c2cccc(C(=O)O)c2F)cc1 [Compound 55, 3-[[4-[2-(2-amino-3-pyridyl)-5-phenyl-imidazo[4,5-b]pyridin-3-yl]phenyl]carbamoyl]-2-fluoro-benzoic acid] | < 500 | < 50 |
| Cc1c(C(=O)O)cccc1C(=O)N1CC(c2ccc(-n3c(-c4cccnc4N)nc4ccc(-c5ccccc5)nc43)cc2)C1 [Compound 77, 3-(3-(4-(2-(2-aminopyridin-3-yl)-5-phenyl-3H-imidazo[4,5-b]pyridin-3-yl)phenyl)azetidine-1-carbonyl)-2-methylbenzoic acid] | < 500 | 50 to 200 |
| Nc1ncccc1-c1nc2ccc(-c3ccccc3)nc2n1-c1ccc(CNC(=O)c2cccc(CC(=O)O)c2)cn1 [Compound 49, 2-(3-(((6-(2-(2-aminopyridin-3-yl)-5-phenyl-3H-imidazo[4,5-b]pyridin-3-yl)pyridin-3-yl)methyl)carbamoyl)phenyl)acetic acid] | > 500 | > 500 |
| Nc1ncccc1-c1nc2ccc(-c3ccccc3)nc2n1-c1ccc(C(=O)NCc2cccc(CC(=O)O)c2)cc1 [Compound 52, 2-(3-((4-(2-(2-aminopyridin-3-yl)-5-phenyl-3H-imidazo[4,5-b]pyridin-3-yl)benzamido)methyl)phenyl)acetic acid] | > 500 | > 500 |
| COC(=O)CCc1ccc(C(=O)NCc2ccc(-n3c(-c4cccnc4N)nc4cc(-c5cccnc5)cnc43)cc2)cc1 [Compound 91, methyl 3-(4-((4-(2-(2-aminopyridin-3-yl)-6-(pyridin-3-yl)-3H-imidazo[4,5-b]pyridin-3-yl)benzyl)carbamoyl)phenyl) propanoate] | < 500 | > 500 |
| Nc1ncccc1-c1nc2ccc(-c3ccccc3)nc2n1-c1ccc(CNC(=O)c2cccc(CC(=O)O)c2)nc1 [Compound 48, 2-(3-(((5-(2-(2-aminopyridin-3-yl)-5-phenyl-3H-imidazo[4,5-b]pyridin-3-yl)pyridin-2-yl)methyl)carbamoyl)phenyl)acetic acid] | > 500 | > 500 |
| Nc1ncccc1-c1nc2ccc(-c3ccccc3)nc2n1-c1ccc(NC(=O)c2cccc(C(=O)O)c2)nc1 [Compound 60, 3-((5-(2-(2-aminopyridin-3-yl)-5-phenyl-3H-imidazo[4,5-b]pyridin-3-yl)pyridin-2-yl)carbamoyl)benzoic acid] | < 500 | < 50 |
| Nc1ncccc1-c1nc2ccc(-c3ccccc3)nc2n1-c1ccc(C2CN(Cc3cccc(CC(=O)O)c3)C2)cc1 [Compound 79, 2-(3-((3-(4-(2-(2-aminopyridin-3-yl)-5-phenyl-3H-imidazo[4,5-b]pyridin-3-yl)phenyl)azetidin-1-yl)methyl)phenyl) acetic acid] | < 500 | 200 to 500 |

Other lines, results leading:

| IC50 [1] [nM] | IC50 [2] [nM] | Compound |
| --- | --- | --- |
| > 500 | > 500 | NC(=O)c1cnc2c(c1)nc(-c1cccnc1N)n2-c1ccc(CNC(=O)c2cccc(CC(=O)O)c2)cc1 [Compound 97, 2-[3-[[4-[2-(2-amino-3-pyridyl)-6-carbamoyl-imidazo[4,5-b]pyridin-3-yl]phenyl]methylcarbamoyl]phenyl]acetic acid] |
| > 500 | > 500 | Nc1ncccc1-c1nc2ccccc2n1-c1ccc(CNC(=O)c2cccc(CC(=O)O)c2)cc1 [Compound 108, 2-(3-((4-(2-(2-aminopyridin-3-yl)-1H-benzo[d]imidazol-1-yl)benzyl)carbamoyl)phenyl) acetic acid] |
| < 500 | < 50 | COc1cc(CN2CC(c3ccc(-n4c(-c5cccnc5N)nc5ccc(-c6ccccc6)nc54)cc3)C2)ccc1C(=O)O [Compound 184, 4-((3-(4-(2-(2-aminopyridin-3-yl)-5-phenyl-3H-imidazo[4,5-b]pyridin-3-yl)phenyl)azetidin-1-yl)methyl)-2-methoxybenzoic acid] |
| < 500 | > 500 | COC(=O)c1ccc([C@H](C)N2CC(c3ccc(-n4c(-c5cccnc5N)nc5ccc(-c6ccccc6)nc54)cc3)C2)cc1 (single isomer, unassigned) [Compound 158] |
